Consider three molecules from patent publication US5665779A, “Pharmaceutical composition for inhibiting the infection with AIDS virus” (Zaidan, Hojin, Biseibutsu, Kagaku, Kenkyu, Kai, priority 1991, dated 1997).

In brackets after ≈: the same amount, converted by molar mass. Read-outs that look alike come from different tables or passages of the source.

For data set [1] the following is noted: colorless powder; reported earlier; cited from earlier work.
A further data set in a line: Hygroscopicity. The class given is physicochemical. The conditions noted are these: colorless powdery substance, Referential Example 1.
A short description of data set [2]: Acute toxicity in mice, intravenous. The conditions noted are these: mouse, in vivo, read-out: Dosage tolerated without death (acute toxicity). How it is done: D-β-Lysylmethanediamine used according to this invention is characterised by its low toxicity to mammalian animals. For instance, in the tests of estimating acute toxicity of this compound where mice were intravenously administered with D-β-lysylmethanediamine, the mice having received administration of D-β-lysylmethanediamine could tolerate a dosage of 250 mg/kg of D-β-lysylmethanediamine without involving their death.

For a further data set, the system named is Gram-positive bacteria. The conditions noted are these: J. Antibiotics 39(3), 476 (1986); Kokai Sho-62-114947; cited from earlier work.
A further data set has as its target T1, protease of HIV (HIV-1 M:B_HXB2R, UniProt P04585).
T1 construct: preparation not described
Description: Activity inhibitory to protease of HIV. The class given is biochemical. The conditions noted are these: 100 μg/ml.

A further data set concerns MT-4 cells. Description: Cytotoxicity to MT-4 cells in the absence of HIV. The class given is cell-based, human. The conditions noted are these: even at a concentration of 100 μg/ml. The method, then: Furthermore, cytotoxicity of D-β-lysylmethanediamine to the MT-4 cells was estimated. This was done by incubating the MT-4 cells at varying concentrations of D-β-lysylmethanediamine added and in the absence of HIV but in the same manner of incubation and under the same conditions of incubation of MT-4 cells as those employed in the above-mentioned test procedures of assaying the activity of D-β-lysylmethanediamine to inhibit the infection of T-cells with HIV. That the cytotoxicity was not observed is represented by the symbol "-" in Table 1 below.

The target of data set [3] is T2, reverse transcriptase of HIV (HIV-1 M:B_HXB2R, UniProt P04585).
T2 construct: preparation not described
Description: Activity inhibitory to reverse transcriptase of HIV. The conditions noted are these: 100 μg/ml. The class given is biochemical. The source says: Thus, it is apparent that D-β-lysylmethanediamine can inhibit strongly the infection of human T-cells with HIV by any mechanism yet unknown.

A short description of the next data set: Solubility in water. The class given is physicochemical. The conditions noted are these: in words.
A short description of data set [4]: Extractability with organic solvents. In kind it is physicochemical. The conditions noted are these: from liquid portion of the culture.
For data set [5], the system named is HIV (HTLV-IIIB strain) in MT-4 cells (human T-cell line). Description: Inhibition of infection of human T-cells (MT-4) with HIV, HIV antigen-positive cells by indirect immunofluorescence. In kind it is cell-based. The conditions noted are these: for EC50: MT-4 cells, read-out: 50% Effective concentration (ED50) against HIV. How it is done:
Effects of D-β-lysylmethanediamine inhibitory to infection of human T-cells with HIV were examined in a similar manner to the assay methods described in the "Proc. Natl. Acad, Sci. USA," 80, 6061-6065 (1983); "J. Antibiot.", 40, 1077-1078, (1987); "J. Antibiot.", 42, 344-346 (1989) and "J. Antibiot." 44, 1228-1236 (1991).
1×10^5 Cells/ml of MT-4 cells (human T-cell line) in phosphate buffered saline were seeded into Costar 48-well plates in an amount of 0.5 ml/well. Each well was added with 0.05 ml of a solution of the test compound, namely D-β-lysylmethanediamine (dissolved at different concentrations of 3, 10, 30 and 100 μg per ml in phosphate buffered saline). After incubation for 2 hours at 37° C. under 5% CO2, the MT-4 cells were infected with 0.05 ml of HIV (HTLV-IIIB strain) as added in an amount of multiplicity of infection (m.o.i) of 0.025 to 0.05 in each well. The plates were incubated for 4 days at 37° C. under 5% CO2 so that the T-cells were treated in the presence of the test compound at the different concentrations.
Portions of the incubated cultures were taken and the MT-4 cells were smeared onto slide glasses, dried and fixed with acetone. The presence of the HIV antigen-positive MT-4 cells was detected by the indirect immunofluoroescent assay [Y. Hinuma et al., "Proc. Natl. Acad. Sci. USA," 78, 6476-6480, (1981) and Y. Takeuchi et al., "Gann.", 78, 11-15 (1987)]. To this end, the cell smears, that is, the acetone-fixed cell smears were treated at 37° C. for 30 minutes with such serum of AIDS patient at a dilution of 1:10 in phosphate buffered saline, which was employed as the first antibody. After washing subsequently with phosphate buffered saline, the MT-4 cells were treated at 37° C. for 30 minutes with fluorescent isothiocyanate-conjugated rabbit anti-human IgG serum (Cappel Laboratories, Cocharanville, Pa., USA), which was employed as the second antibody. After the cell smears were then washed with phosphate buffered saline and covered with a cover glass, the MT-4 cells were examined under a fluorescence microscope. Percentages of the number of the viral antigen-positive MT-4 cells (namely, immunofluorescent cells where the HIV-associated antigens were present and expressed) in total cells were calculated.
For the control tests of estimating the number of the total cells under test, the above test procedures were repeated without addition of D-β-lysylmethanediamine.
In order to evaluate the activity of D-β-lysylmethanediamine to inhibit the infection of human T-cells, namely the MT-4 cells with HIV, calculation was made of the percentages (T/C, %) of the number (T) of the HIV antigen-positive cells as measured in the above-mentioned tests where the incubation of MT-4 cells was effected in the presence of the test compound, against the number (C) of the HIV antigen-positive cells as measured in the above-mentioned control tests where the incubation of MT-4 cells was effected without the addition of the test compound. The results of such calculation of the T/C values (%) are shown in Table 1 in term of rate (%) of presence or occurrence of the HIV antigen-positive cells.

The mark [6] stands for this setting: Human immunodeficiency virus 1, IIIB, MT4, 96 h.

Turning to `NCCC[C@@H](N)CC(=O)NCN` [D-β-lysylmethanediamine hemicarbonate], the Hygroscopicity result (in data set [1]; in the data set “Hygroscopicity”) was “hygroscopic” throughout.

For the molecule `NCCC[C@@H](N)CC(=O)NCN` [D-β-lysylmethanediamine], the MTD in data set [2] was no less than 250 mg/kg. Also, the “Antibacterial activity against Gram-positive bacteria” value in the data set with Gram-positive bacteria is “weak antibacterial activity”. Further, the “Activity inhibitory to protease of HIV” value at protease of HIV is reported as “nor any activity inhibitory to protease of HIV”. Moreover, the “Cytotoxicity (in words)” value in the data set with MT-4 cells is given as “no cytotoxicity”. The “Activity inhibitory to reverse transcriptase of HIV” value in data set [3] is recorded as “neither any activity inhibitory to reverse transcriptase of HIV”. Also, the Solubility in water entry in “Solubility in water” is “well soluble in water”. Also, the “Extraction with butanol, butyl acetate, chloroform and other organic solvents” value in data set [4] is on record as “substantially connot be extracted”. Besides, the activity at 3 µg/mL in [5] (Human immunodeficiency virus 1, IIIB, MT4, 96 h, 3 μg/ml, T/C % vs control without test compound, 4 days, 37° C., read-out: Rate (%) of presence of HIV antigen-positive cells) came out at 30%. For the same molecule, the activity at 10 µg/mL in data set [5] (Human immunodeficiency virus 1, IIIB, MT4, 96 h, 10 μg/ml, T/C % vs control without test compound, 4 days, 37° C., read-out: Rate (%) of presence of HIV antigen-positive cells) stood at 15%. In [5] (Human immunodeficiency virus 1, IIIB, MT4, 96 h, 30 μg/ml, T/C % vs control without test compound, 4 days, 37° C., read-out: Rate (%) of presence of HIV antigen-positive cells), the activity at 30 µg/mL worked out at 10%. The activity at 100 µg/mL in data set [5] (Human immunodeficiency virus 1, IIIB, MT4, 96 h, 100 μg/ml, T/C % vs control without test compound, 4 days, 37° C., read-out: Rate (%) of presence of HIV antigen-positive cells) worked out at 5%. Also, the EC50 in data set [5] (setting [6]) came out at 0.62 µg/mL (≈ 3.56 µM). Also, the “Reduction of the number of HIV antigen-positive cells (in words)” value in [5] (concentrations of no more than 100 μg/ml) is on record as “reduce significantly”.

Regarding `OC[C@@H]1CC[C@H](n2cnc3c(O)ncnc32)O1` [DDI, 2',3'-dideoxyinosine, reference compound], the EC50 in [5] (setting [6]) was 0.46 µg/mL (≈ 1.95 µM). Also, the “Effect of inhibiting the infection of human T-cells with HIV compared with D-β-lysylmethanediamine (in words)” value in [5] (relative to D-β-lysylmethanediamine, from ED50) is “to the same extent”.
